The values that follow come from US20220056019A1, “FARNESOID X RECEPTOR AGONISTS AND USES THEREOF” (Metacrine, Inc., priority 2018, published 2022).

The assay deals with T1, hFXR (Homo sapiens, UniProt Q96RI1).
T1 construct: expressed in transfected cells; host or cells: CV-1 cells
T1 sequence (Q96RI1 1-486): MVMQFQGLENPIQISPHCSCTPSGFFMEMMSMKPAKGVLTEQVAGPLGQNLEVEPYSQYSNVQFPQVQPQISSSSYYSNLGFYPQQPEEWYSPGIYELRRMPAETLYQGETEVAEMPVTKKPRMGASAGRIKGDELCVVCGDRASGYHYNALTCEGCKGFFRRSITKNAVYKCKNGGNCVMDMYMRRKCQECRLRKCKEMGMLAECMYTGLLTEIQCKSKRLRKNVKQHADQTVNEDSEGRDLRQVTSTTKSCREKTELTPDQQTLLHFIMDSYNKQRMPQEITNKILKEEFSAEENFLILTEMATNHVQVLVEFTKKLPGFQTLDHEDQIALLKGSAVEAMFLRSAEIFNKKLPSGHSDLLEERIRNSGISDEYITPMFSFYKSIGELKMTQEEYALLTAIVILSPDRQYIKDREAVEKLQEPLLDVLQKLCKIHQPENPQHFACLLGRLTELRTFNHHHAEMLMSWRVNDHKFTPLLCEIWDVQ
T1 sequence (P19793 1-462 partner): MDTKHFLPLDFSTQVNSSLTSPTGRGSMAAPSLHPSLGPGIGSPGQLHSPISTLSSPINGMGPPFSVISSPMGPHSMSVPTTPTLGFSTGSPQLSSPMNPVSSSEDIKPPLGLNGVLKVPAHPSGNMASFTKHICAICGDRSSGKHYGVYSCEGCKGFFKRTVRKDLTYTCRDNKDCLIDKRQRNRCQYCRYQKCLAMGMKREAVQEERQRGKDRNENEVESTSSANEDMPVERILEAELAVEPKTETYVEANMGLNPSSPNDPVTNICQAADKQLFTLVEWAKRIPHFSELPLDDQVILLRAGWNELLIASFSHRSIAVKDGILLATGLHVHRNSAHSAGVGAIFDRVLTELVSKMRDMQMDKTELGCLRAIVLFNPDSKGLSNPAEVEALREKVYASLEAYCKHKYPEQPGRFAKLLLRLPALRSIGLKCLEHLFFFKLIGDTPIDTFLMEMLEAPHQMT
The experiment in a line: In Vitro FXR Assay (TK): TK-ECRE-luc reporter in transfected CV-1 cells. It counts as cell-based. The note with it: 18 hrs incubation, luminescence. The gist of the method: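 Reporter gene assay: CV-1 cells co-expressing hFXR, hRXR, TK-ECRE-luc and pCMX-YFP after overnight transfection in charcoal-stripped serum. Treatment with serially diluted compounds lasted 18 hrs at 37 °C, followed by cell lysis and a luminescence measurement.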
Usually EC50 stands for the concentration needed to bring the measured effect to its halfway point. A low value points to greater potency. `Cc1ccc(C23CCC(CN(c4cc(-c5cnn(C(C)C)c5)ccn4)C(=O)[C@H]4CC[C@H](OC(=O)N5CC(O)C5)CC4)(CC2)CC3)cc1C` [Compound 26.09, 4-(((4-(3,4-Dimethylphenyl)bicyclo[2.2.2]octan-1-yl)methyl)(4-(1-isopropyl-1H-pyrazol-4-yl)pyridin-2-yl)carbamoyl)cyclohexyl trans-3-hydroxyazetidine-1-carboxylate] returned an EC50 of no more than 50 nM.

With `COc1ccc(C23CCC(CN(c4cc(-c5cnn(C(C)C)c5)ccn4)C(=O)[C@H]4CC[C@H](OC(=O)N5CC(O)C5)CC4)(CC2)CC3)cc1Cl` [Compound 4.16, 4-(((4-(3-Chloro-4-methoxyphenyl)bicyclo [2.2.2]octan-1-yl)methyl) (4-(1-isopropyl-1H-pyrazol-4-yl)pyridin-2-yl)carbamoyl)cyclohexyl hydroxyazetidine-1-carboxylate], the EC50 was no more than 50 nM. As for `COc1ccc([C@H]2CC[C@H](CN(c3cc(-c4cnc(C5CC5)s4)ccn3)C(=O)[C@H]3CC[C@H](OC(=O)N4CCN(C)CC4)CC3)CC2)cc1Cl` [Compound 2.08, trans-4-(((trans-4-(3-Chloro-4-methoxyphenyl)cyclohexyl)methyl)(4-(2-cyclopropylthiazol-5-yl)pyridin-2-yl)carbamoyl)cyclohexyl 4-methylpiperazine-1-carboxylate], the EC50 is no more than 50 nM. `COCC1CN(C(=O)O[C@H]2CC[C@H](C(=O)N(CC34CCC(c5ccc(OC)c(C)c5)(CC3)CC4)c3cc(-c4cnn(C(C)C)c4)ccn3)CC2)C1` [Compound 4.41, 4-((4-(1-Isopropyl-1H-pyrazol-4-yl)pyridin-2-yl) ((4-(4-methoxy-3-methylphenyl)bicyclo [2.2.2]octan-1-yl)methyl)carbamoyl)cyclohexyl trans-3-(methoxymethyl) azetidine-1-carboxylate] showed an EC50 of no more than 50 nM. With `COc1ccc(C23CCC(CN(c4cc(-c5cnc(C(C)C)s5)ccn4)C(=O)[C@H]4CC[C@H](OC(=O)N5CC(CO)C5)CC4)(CC2)CC3)cc1C` [Compound 4.29, 4-((4-(2-Isopropylthiazol-5-yl)pyridin-2-yl)((4-(4-methoxy-3-methylphenyl)bicyclo[2.2.2]octan-1-yl)methyl)carbamoyl)(trans-cyclohexyl) 3-(hydroxymethyl)azetidine-1-carboxylate], the EC50 is no more than 50 nM. The compound `COc1ccc(C23CCC(CN(c4cc(-c5cnn(C(C)C)c5)ccn4)C(=O)[C@H]4CC[C@H](OC(=O)N5CC(C(C)C)C5)CC4)(CC2)CC3)cc1C` [Compound 23.12, 4-((4-(1-Isopropyl-1H-pyrazol-4-yl)pyridin-2-yl)((4-(4-methoxy-3-methylphenyl)bicyclo[2.2.2]oc-tan-1-yl)methyl)carbamoyl)cyclo-hexyl trans-3-isopropyl-azetidine-1-carboxylate] gave an EC50 of no more than 50 nM.

As for `COc1ccc(C23CCC(CN(c4cc(-c5cnn(C(C)C)c5)ccn4)C(=O)[C@H]4CC[C@H](NC(C)=O)CC4)(CC2)CC3)cc1C` [Compound 10.05, trans-4-Acetamido-N-(4-(1-isopropyl-1H-pyrazol-4-yl)pyridin-2-yl)-N-((4-(4-methoxy-3-methylphenyl)bicyclo[2.2.2]octan-1-yl)methyl)cyclohexane-carboxamide], the EC50 was no more than 50 nM. In the case of `COc1ccc(C23CCC(CN(c4cc(-c5cnc(C(C)C)s5)ccn4)C(=O)[C@H]4CC[C@H](OC(=O)NCCCO)CC4)(CC2)CC3)cc1C` [Compound 4.33, 4-((4-(2-Isopropylthiazol-5-yl)pyridin-2-yl)((4-(4-methoxy-3-methylphenyl)bicyclo[2.2.2]octan-1-yl)methyl)carbamoyl)(trans-cyclohexyl) (3-hydroxypropyl)carbamate] it was no more than 50 nM; in that of `COc1ncc(C23CCC(CN(c4cc(-c5cnn(C(C)C)c5)ccn4)C(=O)[C@H]4CC[C@H](OC(=O)N5CC(O)C5)CC4)(CC2)CC3)cc1C` [Compound 26, 4-((4-(1-Isopropyl-1H-pyrazol-4-yl)pyridin-2-yl)((4-(6-methoxy-5-methylpyridin-3-yl)bicyclo[2.2.2]octan-1-yl)methyl)carbamoyl)cyclohexyl trans-3-hydroxyazetidine-1-carboxylate], no more than 50 nM. In the case of `COc1ccc([C@H]2CC[C@H](CN(c3cccc(-c4cnn(C(C)C)c4)c3)C(=O)[C@H]3CC[C@H](CCO)CC3)CC2)cc1C` [Compound 15, trans-4-(2-Hydroxyethyl)-N-(3-(1-isopropyl-1H-pyrazol-4-yl)phenyl)-N-((trans-4-(4-methoxy-3-methylphenyl)cyclohexyl)methyl)cy-clohexanecarboxamide], the EC50 was no more than 50 nM. In the case of `COc1ccc(C23CCC(CN(c4cc(-c5cnn(C(C)C)c5)ccn4)C(=O)[C@H]4CC[C@H](OC(=O)N5CC(OCCO)C5)CC4)(CC2)CC3)cc1C` [Compound 4.10, 4-((4-(1-Isopropyl-1H-pyrazol-4-yl)pyridin-2-yl)((4-(4-methoxy-3-methylphenyl)bicyclo [2.2.2]octan-1-yl)methyl)carbamoyl)cyclohexyl 3-(2-hydroxyethoxy) azetidine- trans-1-carboxylate] it was no more than 50 nM; in that of `COc1ccc(C23CCC(CN(c4cc(-c5cnn(C(C)C)c5)ncn4)C(=O)[C@H]4CC[C@H](OC(=O)N5CC(CO)C5)CC4)(CC2)CC3)cc1C` [Compound 23.20, 4-((6-(1-Isopropyl-1H-pyrazol-4-yl)pyrimidin-4-yl)((4-(4-methoxy-3-methylphenyl)bi-cyclo[2.2.2]octan-1-yl)methyl)carbamoyl)(trans-cyclohexyl) 3-(hydroxymethyl)azetidine-1-carboxylate], no more than 50 nM. In the case of `COc1ccc(C23CCC(CN(c4cc(-c5coc(C(C)C)n5)ccn4)C(=O)[C@H]4CC[C@H](OC(=O)NCCC(C)(C)O)CC4)(CC2)CC3)cc1C` [Compound 23.06, 4-((4-(2-Isopropyloxazol-4-yl)pyridin-2-yl)((4-(4-methoxy-3-methylphenyl)bicyclo[2.2.2]octan-1-yl)methyl)carbamoyl)(trans-cyclohexyl)(3-hydroxy-3-methylbutyl)carbamate] it was no more than 50 nM; in that of `COc1ccc(C23CCC(CN(c4cc(-c5cnn(C(C)C)c5)ccn4)C(=O)[C@H]4CC[C@H](OC(=O)N5CC(O)C5)CC4)(CC2)CC3)cc1C` [Compound 4, 4-((4-(1-Isopropyl-1H-pyrazol-4-yl)pyridin-2-yl)((4-(4-methoxy-3-methylphenyl)bicyclo[2.2.2]octan-1-yl)methyl)carbamoyl)cyclohexyl 3-hydroxyazetidine-trans-1-carboxylate], no more than 50 nM.

Compound `COc1ccc(C23CCC(CN(c4cc(-c5cnn(C6(C)CCC6)c5)ccn4)C(=O)[C@H]4CC[C@H](OC(=O)NCCCO)CC4)(CC2)CC3)cc1C` [Compound 25.17, 4-(((4-(4-Methoxy-3-methylphenyl)bicyclo[2.2.2]octan-1-yl)methyl)(4-(1-(1-methylcyclobutyl)-1H-pyrazol-4-yl)pyridin-2-yl)carbamoyl)(trans-cyclohexyl)(3-hydroxypropyl)carbamate] returned an EC50 of no more than 50 nM.

Take `COc1ncc([C@H]2CC[C@H](CN(c3cc(-c4cnn(C(C)C)c4)ccn3)C(=O)[C@H]3CC[C@H](OC(=O)N4CC(N(C)C)C4)CC3)CC2)cc1Cl` [Compound 1.08, trans-4-((((trans)-4-(5-Chloro-6-methoxypyridin-3-yl)cyclohexyl)methyl)(4-(1-isopropyl-1H-pyrazol-4-yl)pyridin-2-yl)carbamoyl)cyclohexyl 3-(dimethylamino)azetidine-1-carboxylate]: the EC50 was no more than 50 nM. The value for `COc1ccc([C@H]2CC[C@H](CN(c3cc(-c4coc(C5CC5)n4)ccn3)C(=O)[C@H]3CC[C@H](OC(=O)NCC(C)(C)CO)CC3)CC2)nc1C` [Compound 1, trans-4-((4-(2-Cyclopropyloxazol-4-yl)pyridin-2-yl)((trans-4-(5-methoxy-6-methylpyridin-2-yl)cyclohexyl)methyl)carbamoyl)cyclohexyl (3-hydroxy-2,2-dimethylpropyl)carbamate] was no more than 50 nM; that for `COc1ccc(C23CCC(CN(c4cc(-c5cnn(C(C)C)c5)ccn4)C(=O)[C@H]4CC[C@H](OC(=O)N5CC(CO)C5)CC4)(CC2)CC3)cc1C` [Compound 4.09, 4-((4-(1-Isopropyl-1H-pyrazol-4-yl)pyridin-2-yl)((4-(4-methoxy-3-methylphenyl)bicyclo [2.2.2]octan-1-yl)methyl)carbamoyl)cyclohexyl 3-(hydroxymethyl) azetidine-trans-1-carboxylate] was no more than 50 nM.
